Test results published in paper PMC11011439, “Influence of Molecular Design on the Tumor Targeting and Biodistribution of PSMA-Binding Tracers Labeled with Technetium-99m” (International Journal of Molecular Sciences, 2024).

Experiments:
PSMA = biological target: T1, PSMA (Homo sapiens, UniProt Q04609); experiment: Real-time binding kinetics on living PC3-pip cells (LigandTracer Yellow); details: 5 nM tracer, 1:2 interaction model, read-out: KD1
T1 construct: expressed in transfected cells; host or cells: PC3-pip cells (from Prof. Martin G. Pomper, Johns Hopkins University)
Experimental: The binding kinetics of [^99mTc]Tc-labeled BQ0411, BQ0412, and BQ0413 were measured in real time using LigandTracer Yellow Instruments (Ridgeview Instruments AB, Uppsala, Sweden) on PC3-pip cells, as described earlier. The activity binding was recorded at 5 nM on the radiolabeled tracers for 150 min. After measuring the binding kinetics, the medium containing the labeled tracer was replaced with fresh medium, and the dissociation was monitored over 7 h. […]

[1] = of the [99mTc]Tc-labeled ligand; cited from earlier work

T1 sequence (Q04609 whole entry): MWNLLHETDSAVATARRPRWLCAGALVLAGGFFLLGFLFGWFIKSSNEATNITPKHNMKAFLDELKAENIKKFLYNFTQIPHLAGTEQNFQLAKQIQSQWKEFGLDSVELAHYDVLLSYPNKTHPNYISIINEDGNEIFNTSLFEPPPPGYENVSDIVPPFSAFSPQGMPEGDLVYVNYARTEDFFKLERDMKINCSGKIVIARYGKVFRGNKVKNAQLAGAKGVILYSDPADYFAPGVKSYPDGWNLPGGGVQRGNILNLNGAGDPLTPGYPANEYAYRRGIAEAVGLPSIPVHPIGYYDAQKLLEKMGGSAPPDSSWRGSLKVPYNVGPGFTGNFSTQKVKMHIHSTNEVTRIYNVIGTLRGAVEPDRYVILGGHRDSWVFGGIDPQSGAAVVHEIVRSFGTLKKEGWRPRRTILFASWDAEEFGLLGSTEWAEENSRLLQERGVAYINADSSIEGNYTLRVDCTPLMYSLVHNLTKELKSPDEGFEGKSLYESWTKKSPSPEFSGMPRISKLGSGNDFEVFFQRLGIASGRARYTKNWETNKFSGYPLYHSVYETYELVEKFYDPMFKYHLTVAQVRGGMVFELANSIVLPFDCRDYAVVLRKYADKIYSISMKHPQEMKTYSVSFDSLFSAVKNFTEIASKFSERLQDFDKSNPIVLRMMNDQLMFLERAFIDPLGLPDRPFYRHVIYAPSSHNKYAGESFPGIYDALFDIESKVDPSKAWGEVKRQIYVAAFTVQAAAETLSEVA

SMILES: CC(=O)N[C@@H](CCCCNC(=O)CNC(=O)C(CCC(=O)O)[N]1C(=O)C(CCC(=O)O)[N]2C(=O)C(CCC(=O)O)[N]3C(=O)C[S][TcH]312=[O])C(=O)NCCCCCCCC(=O)N[C@@H](Cc1ccc(O)cc1)C(=O)N[C@@H](Cc1ccc2ccccc2c1)C(=O)NCCCC[C@H](NC(=O)N[C@@H](CCC(=O)O)C(=O)O)C(=O)O (stereo partly drawn) [[^99mTc]Tc-BQ0413]
- Kd (PSMA): 0.089 nM

SMILES: CC(=O)N[C@@H](CCCCNC(=O)C[N]1C(=O)C[N]2C(=O)C[N]3C(=O)C[S][TcH]132=[O])C(=O)NCCCCCCCC(=O)N[C@@H](Cc1ccc(O)cc1)C(=O)N[C@@H](Cc1ccc2ccccc2c1)C(=O)NCCCC[C@H](NC(=O)N[C@@H](CCC(=O)O)C(=O)O)C(=O)O [[^99mTc]Tc-BQ0412]
- Kd (PSMA): 0.44 nM

SMILES: CC(=O)N[C@@H](CCCCNC(=O)CNC(=O)CNC(=O)CNC(=O)CS)C(=O)NCCCCCCCC(=O)N[C@@H](Cc1ccc(O)cc1)C(=O)N[C@@H](Cc1ccc2ccccc2c1)C(=O)NCCCC[C@H](NC(=O)N[C@@H](CCC(=O)O)C(=O)O)C(=O)O [BQ0412]
- overall charge [1]: −1

SMILES: CC(=O)N[C@@H](CCCCNC(=O)CNC(=O)C(CCC(=O)O)NC(=O)C(CCC(=O)O)NC(=O)C(CCC(=O)O)NC(=O)CS)C(=O)NCCCCCCCC(=O)N[C@@H](Cc1ccc(O)cc1)C(=O)N[C@@H](Cc1ccc2ccccc2c1)C(=O)NCCCC[C@H](NC(=O)N[C@@H](CCC(=O)O)C(=O)O)C(=O)O (stereo partly drawn) [BQ0413]
- overall charge [1]: −4

SMILES: CC(=O)N[C@@H](CCCCNC(=O)CNC(=O)CNC(=O)CNC(=O)CNC(=O)CS)C(=O)NCCCCCCCC(=O)N[C@@H](Cc1ccc(O)cc1)C(=O)N[C@@H](Cc1ccc2ccccc2c1)C(=O)NCCCC[C@H](NC(=O)N[C@@H](CCC(=O)O)C(=O)O)C(=O)O [BQ0411]
- overall charge [1]: −1

SMILES: CC(=O)NC(CCCCNC(=O)CNC(=O)C[N]1C(=O)C[N]2C(=O)C[N]3C(=O)C[S][TcH]132=[O])C(=O)NCCCCCCCC(=O)NC(Cc1ccc(O)cc1)C(=O)NC(Cc1ccc2ccccc2c1)C(=O)NCCCCC(NC(=O)NC(CCC(=O)O)C(=O)O)C(=O)O (stereo not drawn) [[^99mTc]Tc-BQ0411]
- Kd (PSMA): 0.604 nM
